Reference: the NIST ThermoML archive (doi:10.1021/je060411g)

Assay: molar heat capacity at constant pressure
Conditions: 101.33 kPa

CCCC(C)O (stereo unspecified) [pentan-2-ol]
Conditions	molar heat capacity at constant pressure [J/K/mol]
79.67 K, Glass	63.18
80.46 K, Glass	63.33
82.3 K, Glass	64.14
84.42 K, Glass	67.58
85.14 K, Glass	66.47
85.32 K, Glass	67.84
86.75 K, Glass	68.64
87.94 K, Glass	69.06
88.7 K, Glass	70.03
90.63 K, Glass	71.1
90.73 K, Glass	70.94
92.44 K, Glass	69.53
92.56 K, Glass	72.26
93.14 K, Glass	65.87
93.54 K, Glass	72.61
94.47 K, Glass	69.28
94.5 K, Glass	73.35
95.82 K, Glass	74.84
96.37 K, Glass	74.28
96.39 K, Glass	69.82
96.44 K, Glass	74.4
96.51 K, Glass	73.84
97.85 K, Glass	74.9
98.3 K, Glass	70.93
98.39 K, Glass	75.87
99.21 K, Glass	76.42
99.81 K, Glass	76.63
100.21 K, Glass	72.31
100.33 K, Glass	77.32
101.76 K, Glass	76.89
102.06 K, Glass	77.9
102.12 K, Glass	72.26
102.28 K, Glass	78.12
103.71 K, Glass	77.71
104.04 K, Glass	72.83
104.24 K, Glass	78.97
104.91 K, Glass	79.34
105.66 K, Glass	79.19
105.95 K, Glass	74.19
106.19 K, Glass	80.14
107.61 K, Glass	80.61
107.78 K, Glass	81.22
107.87 K, Glass	75.02
108.15 K, Glass	81.83
109.56 K, Glass	81.6
109.78 K, Glass	76.24
110.11 K, Glass	83.03
110.65 K, Glass	82.72
111.51 K, Glass	82.56
111.7 K, Glass	77.13
112.08 K, Glass	84.03
113.47 K, Glass	83.55
113.52 K, Glass	84.21
113.62 K, Glass	77.89
114.05 K, Glass	85.23
115.43 K, Glass	84.36
115.53 K, Glass	78.83
116.02 K, Glass	86.13
116.41 K, Glass	85.6
117.39 K, Glass	85.19
117.45 K, Glass	79.39
117.99 K, Glass	86.99
119.31 K, Glass	86.83
119.36 K, Glass	85.74
119.37 K, Glass	80.16
119.97 K, Glass	87.03
121.3 K, Glass	80.85
121.33 K, Glass	86.41
121.95 K, Glass	88.36
122.2 K, Glass	88.5
123.23 K, Glass	82.6
123.29 K, Glass	88
123.94 K, Glass	89.95
125.11 K, Glass	91.4
125.15 K, Glass	84.47
125.26 K, Glass	89.98
125.92 K, Glass	92.63
127.07 K, Glass	88.92
127.21 K, Glass	95.14
134.18 K, Liquid	138.36
134.47 K, Liquid	145.14
135.24 K, Liquid	146.4
136 K, Liquid	146.52
136.05 K, Liquid	138.34
136.39 K, Liquid	145.03
137.22 K, Liquid	146.29
137.97 K, Liquid	138.35
138.36 K, Liquid	145.17
138.84 K, Liquid	146.59
139.21 K, Liquid	146.22
139.9 K, Liquid	138.69
140.33 K, Liquid	145.48
141.2 K, Liquid	146.34
141.77 K, Liquid	146.74
141.83 K, Liquid	139.02
142.3 K, Liquid	145.81
143.19 K, Liquid	146.48
143.77 K, Liquid	139.32
144.73 K, Liquid	146.91
145.18 K, Liquid	146.45
147.18 K, Liquid	146.59
147.68 K, Liquid	147.17
149.17 K, Liquid	146.66
150.63 K, Liquid	147.42
151.16 K, Liquid	146.74
153.16 K, Liquid	146.86
153.58 K, Liquid	147.65
155.16 K, Liquid	147.04
156.54 K, Liquid	148.06
157.16 K, Liquid	147.26
159.16 K, Liquid	147.41
159.5 K, Liquid	148.35
161.15 K, Liquid	147.59
162.46 K, Liquid	148.75
163.15 K, Liquid	147.87
165.15 K, Liquid	148.07
165.42 K, Liquid	149.14
167.15 K, Liquid	148.38
168.38 K, Liquid	149.64
169.15 K, Liquid	148.62
171.15 K, Liquid	148.98
171.34 K, Liquid	150.12
173.15 K, Liquid	149.17
174.31 K, Liquid	150.62
175.15 K, Liquid	149.61
177.14 K, Liquid	150.03
177.27 K, Liquid	151.24
179.14 K, Liquid	150.37
180.22 K, Liquid	151.84
181.14 K, Liquid	150.83
183.13 K, Liquid	151.22
183.15 K, Liquid	152.41
185.13 K, Liquid	151.66
186.06 K, Liquid	153.18
187.13 K, Liquid	152.22
188.97 K, Liquid	153.85
189.12 K, Liquid	152.69
191.11 K, Liquid	153.28
191.86 K, Liquid	154.61
193.1 K, Liquid	153.79
194.73 K, Liquid	155.46
195.09 K, Liquid	154.43
197.08 K, Liquid	155.04
197.6 K, Liquid	156.28
199.07 K, Liquid	155.64
200.45 K, Liquid	157.17
201.05 K, Liquid	156.37
203.04 K, Liquid	157.14
203.28 K, Liquid	158.12
205.02 K, Liquid	157.9
206.11 K, Liquid	159.16
207 K, Liquid	158.71
208.92 K, Liquid	160.23
208.98 K, Liquid	159.59
210.96 K, Liquid	160.43
211.71 K, Liquid	161.38
212.93 K, Liquid	161.43
214.5 K, Liquid	162.6
214.9 K, Liquid	162.36
216.87 K, Liquid	163.53
217.27 K, Liquid	163.98
218.83 K, Liquid	164.58
220.03 K, Liquid	165.38
220.79 K, Liquid	165.86
222.74 K, Liquid	167.19
222.77 K, Liquid	166.74
224.69 K, Liquid	168.3
225.5 K, Liquid	168.21
226.64 K, Liquid	169.58
228.21 K, Liquid	169.75
228.58 K, Liquid	170.97
230.52 K, Liquid	172.4
230.92 K, Liquid	171.38
232.46 K, Liquid	173.26
233.61 K, Liquid	173.02
234.41 K, Liquid	174.28
236.28 K, Liquid	174.82
236.37 K, Liquid	175.25
238.35 K, Liquid	176.25
238.94 K, Liquid	176.57
240.33 K, Liquid	177.32
241.59 K, Liquid	178.24
242.31 K, Liquid	178.65
244.22 K, Liquid	179.98
244.29 K, Liquid	180.19
246.27 K, Liquid	181.71
246.84 K, Liquid	181.91
248.24 K, Liquid	183.24
249.45 K, Liquid	183.85
250.22 K, Liquid	184.81
252.04 K, Liquid	185.96
252.19 K, Liquid	186.49
254.17 K, Liquid	187.53
254.62 K, Liquid	187.26
256.15 K, Liquid	189.21
257.2 K, Liquid	189.4
258.13 K, Liquid	190.9
259.75 K, Liquid	191.63
260.11 K, Liquid	192.75
262.08 K, Liquid	194.51
262.3 K, Liquid	193.87
264.06 K, Liquid	196.4
264.83 K, Liquid	196.18
266.04 K, Liquid	198.15
267.34 K, Liquid	198.56
268.01 K, Liquid	200.17
269.84 K, Liquid	201.01
269.99 K, Liquid	202.16
271.96 K, Liquid	204.25
272.33 K, Liquid	203.73
273.94 K, Liquid	206.27
274.8 K, Liquid	206.33
275.91 K, Liquid	208.32
277.26 K, Liquid	208.61
277.88 K, Liquid	210.5
279.7 K, Liquid	211.18
279.86 K, Liquid	212.62
281.83 K, Liquid	214.76
282.13 K, Liquid	213.77
283.81 K, Liquid	216.99
284.54 K, Liquid	216.55
285.79 K, Liquid	219.38
286.94 K, Liquid	219.25
287.77 K, Liquid	221.67
289.33 K, Liquid	222.07
289.75 K, Liquid	224.09
291.7 K, Liquid	224.87
291.73 K, Liquid	226.3
293.71 K, Liquid	228.63
294.06 K, Liquid	227.43
295.69 K, Liquid	231.18
296.41 K, Liquid	230.08
297.66 K, Liquid	233.65
298.75 K, Liquid	233
299.65 K, Liquid	235.81
301.07 K, Liquid	235.62
